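The compound was tested at five concentrations on cells cultured in 96-well plates, with a 48-hour exposure period. GI50: concentration for 50% inhibition of growth.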 Calls of active or inactive are those of the source. Cut-off read from the data, not from the text of the source: active = GI50 up to about 1.1 µM and inactive = higher.
How the values were obtained:
Experiment in all cases: inhibition of tumour cell growth, NCI panel, 48 h
786-0 = system: 786-0
A549 = system: A549
ACHN = system: ACHN
DU-145 = system: DU-145
HOP-92 = system: HOP-92
K562 = system: K562
M14 = system: M14
MDA-MB-231 = system: MDA-MB-231
NCI-H226 = system: NCI-H226
NCI/ADR-RES = system: NCI/ADR-RES
OVCAR-3 = system: OVCAR-3
OVCAR-4 = system: OVCAR-4
OVCAR-5 = system: OVCAR-5
OVCAR-8 = system: OVCAR-8
RPMI-8226 = system: RPMI-8226
SK-MEL-28 = system: SK-MEL-28
SK-MEL-2 = system: SK-MEL-2
SNB-75 = system: SNB-75
HOP-62 = system: HOP-62
BT-549 = system: BT-549

SMILES	GI50 (786-0)	GI50 (A549)	GI50 (ACHN)	GI50 (DU-145)	GI50 (HOP-92)	GI50 (K562)	GI50 (M14)	GI50 (MDA-MB-231)	GI50 (NCI-H226)	GI50 (NCI/ADR-RES)	GI50 (OVCAR-3)	GI50 (OVCAR-4)	GI50 (OVCAR-5)	GI50 (OVCAR-8)	GI50 (RPMI-8226)	GI50 (SK-MEL-28)	GI50 (SK-MEL-2)	GI50 (SNB-75)	GI50 (HOP-62)	GI50 (BT-549)
COc1ccc(OC)c2c1C(=O)C(Cl)=C(Cl)C2=O	3.41 µM (inactive)	22.3 µM (inactive)	2.99 µM (inactive)	19.6 µM (inactive)	2.51 µM (inactive)	> 22.2 µM (inactive)	2.47 µM (inactive)	2.74 µM (inactive)	18.7 µM (inactive)	2.58 µM (inactive)	2.39 µM (inactive)	3.54 µM (inactive)	15.7 µM (inactive)	6.46 µM (inactive)	3.02 µM (inactive)	3.79 µM (inactive)	3.06 µM (inactive)	14.2 µM (inactive)		
Cc1ccc(/N=N/c2c(-c3ccccc3)nn(C(=O)CC(=O)Nc3ccc(Cl)cc3)c2-c2ccccc2)cc1	36.5 µM (inactive)	78.9 µM (inactive)	79.6 µM (inactive)		23.9 µM (inactive)	42.1 µM (inactive)	65.2 µM (inactive)		36.6 µM (inactive)		26.2 µM (inactive)	77.3 µM (inactive)	48.6 µM (inactive)	32.1 µM (inactive)	18.8 µM (inactive)	> 100 µM (inactive)	81.8 µM (inactive)	20.6 µM (inactive)	33.8 µM (inactive)	
COC(=O)[C@@H]1OC(C)(c2ccccc2)O[C@H]1C(=O)OC	> 100 µM (inactive)	> 100 µM (inactive)	> 100 µM (inactive)	> 100 µM (inactive)	> 100 µM (inactive)	> 100 µM (inactive)	> 100 µM (inactive)	> 100 µM (inactive)	> 100 µM (inactive)	> 100 µM (inactive)	> 100 µM (inactive)	> 100 µM (inactive)	> 100 µM (inactive)	> 100 µM (inactive)	> 100 µM (inactive)	> 100 µM (inactive)	> 100 µM (inactive)	> 100 µM (inactive)	> 100 µM (inactive)	
CN(C)c1nncc2[nH]nnc12	> 100 µM (inactive)	> 100 µM (inactive)	> 100 µM (inactive)		> 100 µM (inactive)	> 100 µM (inactive)	> 100 µM (inactive)		> 100 µM (inactive)	> 100 µM (inactive)	> 100 µM (inactive)	> 100 µM (inactive)	> 100 µM (inactive)	> 100 µM (inactive)	> 100 µM (inactive)	> 100 µM (inactive)	> 100 µM (inactive)	> 100 µM (inactive)	> 100 µM (inactive)	> 100 µM (inactive)
CN(C)CCN(/C(=N/c1ccccc1)N1CCCC1)c1ccccc1	> 10 µM (inactive)	58.3 µM (inactive)	> 100 µM (inactive)	> 100 µM (inactive)	96.8 µM (inactive)	10.3 µM (inactive)	43.7 µM (inactive)		75.9 µM (inactive)	42.3 µM (inactive)	37.3 µM (inactive)	49.5 µM (inactive)	> 100 µM (inactive)	68.7 µM (inactive)	22.6 µM (inactive)	> 100 µM (inactive)	> 100 µM (inactive)	49 µM (inactive)	23.4 µM (inactive)	> 100 µM (inactive)
C=CC(OCC)(OCC)OCC	23.5 µM (inactive)	> 100 µM (inactive)	> 100 µM (inactive)		> 100 µM (inactive)	> 100 µM (inactive)	> 100 µM (inactive)		> 100 µM (inactive)		> 100 µM (inactive)	> 100 µM (inactive)	> 100 µM (inactive)	> 100 µM (inactive)	61.1 µM (inactive)	> 100 µM (inactive)	> 100 µM (inactive)	> 100 µM (inactive)	> 100 µM (inactive)	
COC(=O)[C@H](C)[C@H]1CC[C@@](C)([C@H]2CC3C(C)(C)[C@H]4CCC(C)=C[C@H]4C[C@@]3(C)O2)OO1 (stereo partly specified)	3.33 µM (inactive)	8.24 µM (inactive)	10.4 µM (inactive)		2.86 µM (inactive)	6.21 µM (inactive)	12.6 µM (inactive)		14.7 µM (inactive)		13.2 µM (inactive)	11.9 µM (inactive)	13.4 µM (inactive)	10.7 µM (inactive)	2.92 µM (inactive)	14.6 µM (inactive)	15.4 µM (inactive)	6.14 µM (inactive)	19.3 µM (inactive)	
Oc1c(Cl)c(Cl)c(O)c(-c2cnc(-c3ncc(-c4c(O)c(Cl)c(Cl)c(O)c4Cl)s3)s2)c1Cl	25.1 µM (inactive)	29.6 µM (inactive)	23.3 µM (inactive)	49.8 µM (inactive)	25 µM (inactive)	34.1 µM (inactive)	19.5 µM (inactive)	20.7 µM (inactive)	3.96 µM (inactive)	25.3 µM (inactive)	21.4 µM (inactive)	80.5 µM (inactive)	15.5 µM (inactive)	16.7 µM (inactive)		29.6 µM (inactive)	18.4 µM (inactive)	28.1 µM (inactive)	54.2 µM (inactive)	
NS(=O)(=O)c1ccc(NC(=O)Cc2nc3ccccc3s2)cc1	19.4 µM (inactive)	20.6 µM (inactive)	15.5 µM (inactive)		16.2 µM (inactive)	23.6 µM (inactive)	15.7 µM (inactive)		17.9 µM (inactive)		16.8 µM (inactive)	19.3 µM (inactive)	20.7 µM (inactive)	20.4 µM (inactive)	21.3 µM (inactive)	17.7 µM (inactive)	14.9 µM (inactive)	16.4 µM (inactive)	22.3 µM (inactive)	
COCc1cc2c(s1)C(=O)C1=C(C2=O)C2(C=C(Br)C(=O)C(Br)=C2)CCN1	4.88 µM (inactive)	6.53 µM (inactive)	4.98 µM (inactive)	16 µM (inactive)	4.94 µM (inactive)	2.11 µM (inactive)	1.68 µM (inactive)	3.04 µM (inactive)	12.7 µM (inactive)	3.52 µM (inactive)	0.809 µM (active)	1.65 µM (inactive)	15.5 µM (inactive)	4.15 µM (inactive)	3.25 µM (inactive)	7.67 µM (inactive)	3.55 µM (inactive)	14.6 µM (inactive)		
CCCNc1ncnc2c1cnn2C	> 100 µM (inactive)	> 100 µM (inactive)	> 100 µM (inactive)		> 100 µM (inactive)	> 100 µM (inactive)	> 100 µM (inactive)		> 100 µM (inactive)		> 100 µM (inactive)	> 100 µM (inactive)	> 100 µM (inactive)	> 100 µM (inactive)	> 100 µM (inactive)	> 100 µM (inactive)	> 100 µM (inactive)	51.3 µM (inactive)	> 100 µM (inactive)	
CC(C)(C)[Si](C)(C)OCC1OC(n2cnc3c(=O)[nH]cnc32)CC1O (stereo unspecified)	> 100 µM (inactive)	> 100 µM (inactive)	> 100 µM (inactive)	> 100 µM (inactive)	> 100 µM (inactive)	> 100 µM (inactive)	> 100 µM (inactive)	> 100 µM (inactive)	> 100 µM (inactive)	> 100 µM (inactive)	> 100 µM (inactive)	> 100 µM (inactive)	> 100 µM (inactive)	> 100 µM (inactive)	> 100 µM (inactive)	> 100 µM (inactive)	> 100 µM (inactive)	20.8 µM (inactive)	> 100 µM (inactive)	
CCOc1ccc(/N=C\c2ccc3cc(C)ccc3n2)cc1	51.6 µM (inactive)	> 100 µM (inactive)	35.8 µM (inactive)		66.8 µM (inactive)	25.4 µM (inactive)	49.1 µM (inactive)		> 100 µM (inactive)		33.1 µM (inactive)	75.3 µM (inactive)	> 100 µM (inactive)	50.2 µM (inactive)	22.8 µM (inactive)	> 100 µM (inactive)	45.1 µM (inactive)	40.7 µM (inactive)	> 100 µM (inactive)	
Nc1c(Cl)c([N+](=O)[O-])cc2c1OCCCCO2	> 100 µM (inactive)	> 100 µM (inactive)	> 100 µM (inactive)	> 100 µM (inactive)	38.4 µM (inactive)	> 100 µM (inactive)	> 100 µM (inactive)	83.4 µM (inactive)	72.3 µM (inactive)	89.5 µM (inactive)	> 100 µM (inactive)	> 100 µM (inactive)	> 100 µM (inactive)	> 100 µM (inactive)	> 100 µM (inactive)	> 100 µM (inactive)	> 100 µM (inactive)	23.8 µM (inactive)	> 100 µM (inactive)	
Nn1c(Nc2ccc(S(N)(=O)=O)cc2)nnc(/C=C/c2c(O)ccc3ccccc23)c1=O	24.4 µM (inactive)	28.1 µM (inactive)	30.3 µM (inactive)	26.3 µM (inactive)		17 µM (inactive)	26.4 µM (inactive)			16.3 µM (inactive)	13 µM (inactive)	15.3 µM (inactive)	21.6 µM (inactive)	3.08 µM (inactive)	10.7 µM (inactive)	19.3 µM (inactive)	39.8 µM (inactive)		20.3 µM (inactive)	14.9 µM (inactive)
C=C1CC[C@@H]2C(C)(C)CCC[C@@]2(C)[C@@H]1Cc1cc(O)ccc1O	3.4 µM (inactive)	5.36 µM (inactive)	3.56 µM (inactive)		2.79 µM (inactive)	3.44 µM (inactive)	11.8 µM (inactive)		2.55 µM (inactive)		5.31 µM (inactive)	1.8 µM (inactive)	15.1 µM (inactive)	3.88 µM (inactive)	3.14 µM (inactive)	2.56 µM (inactive)	2.04 µM (inactive)	1.95 µM (inactive)	9.59 µM (inactive)	
